The values below come from publication PMC6290023 (Scientific Reports, 2018).

Peptide text beside a SMILES is read from it.

The subject of data set [1] is LPS-stimulated MG6 cells. Description: Anti-inflammatory effect in LPS-stimulated MG6 cells (TNF-α / IL-6 ELISA). The class given is cell-based, mouse. The procedure:
MG6 cells were obtained from RIKEN BRC (Tsukuba, Japan)[25],[26]. The MG6 cells were maintained in DMEM (Nakarai, Kyoto, Japan) supplemented with 10% FBS (Thermo Fisher Scientific, Waltham, MA, USA), 10 μg/ml insulin (Sigma-Aldrich, St. Louis, MO, USA) and 100 μM 2-mercaptoethanol (Sigma-Aldrich). These cells (1 × 10^5 cells) were plated in 96-well plastic culture dishes. After overnight incubation, the medium was replaced with DMEM supplemented with 4% FBS. LPS (Escherichia coli 0111: B4; Sigma-Aldrich, St. Louis, MO, USA) and MHP1 or modified MHP1 was added to the medium, which was then harvested at 24 h after stimulation. In the experiment checking the stability at 26 or 37 °C, MHP1-Ac or MHP1-AcN was incubated at 26 or 37 °C for 24 h before adding to the medium.
The concentrations of TNF-α and IL-6 were measured using commercially available ELISA kits: TNF-α, Quantikine Mouse TNF-α ELISA Kit (R&D systems); IL-6, Quantikine Mouse IL-6 ELISA Kit (R&D systems).
In general terms: ELISA stands for enzyme-linked immunosorbent assay.

Data set [2] concerns LPS-stimulated MG6 cells. The data set is described as follows: LDH assay in LPS-stimulated MG6 cells. The class given is cell-based, mouse.
Data set [3] in a line: Dissolution in water and sedimentation in 0.45% saline at 37 °C for 24 h. Format: physicochemical. The settings on record: for sedimentation after incubation in 0.45% saline: 37 °C, 24 h, visual. The method, then: Synthetic MHP1 (NH2-[…]-COOH), MHP1-DN1 (NH2-LMVYVV-DLys-[…]-COOH), MHP1-DN2 (NH2-LMV-DTyr-[…]-COOH), MHP1-DN3 (NH2-L-DMet-[…]-COOH), MHP1-DC (NH2-LMVYVVKTSIKIPSSHNL-DMet-KGGSTKNWSGN-COOH), MHP1-Ac (Ac-[…]-COOH), MHP1-AcN (Ac-[…]-HN2), or MHP1-N (NH2-[…]-NH2) was purchased from ILS, Inc (Ibaraki, Tsukuba, Japan), dissolved in 1 or 2 mg/ml ddH2O and stored at 4 °C until use (Table 1).

Data set [4] concerns mouse osteoclast precursor cells. Description: Osteoclast differentiation of mouse osteoclast precursor cells (TRAP-positive large cells). Format: cell-based. The settings on record: M-CSF 50 ng/ml, 5 days. The procedure:
Osteoclast differentiation was examined using a mouse osteoclast culture system obtained from Cosmo Bio Co. Ltd. (Tokyo, Japan). Mouse osteoclast precursor cells seeded in a 24-well plate were incubated with macrophage colony stimulating factor (50 ng/ml) and RANKL (50 ng/ml) with or without MHP1-AcN. After five days, osteoclast precursors stimulated with RANKL had fused with each other and became multinucleated TRAP-positive cells. Cells with more than ten nuclei were classified as large osteoclasts. The number of these cells in each group was counted with a phase contrast microscope (BZ-9000, Keyence, Tokyo) using BZII analyzer software (v1.42; Keyence, Tokyo).

The subject of data set [5] is tMCAo model in mice. Description: Transient middle cerebral artery occlusion (tMCAo) model. The class given is in vivo. The settings on record: mouse tMCAo; for reduction of infarct volume: 150 μl i.v. 6 h after MCAo then s.c. Alzet pump 24 h; for neurological deficits (neurological severity score): start 6 h after MCAo. The method, then: The plan of animal studies was approved by the Animal Committee of Graduate School of Medicine, Osaka University (25-029-012), and all animal experiments were carried out in accordance with the guidelines of Osaka University. All surgeries were performed using isoflurane and all efforts were made to minimize suffering. The C57Bl6/J mice were obtained from CLEA Japan, Inc. The transient middle cerebral artery occlusion procedure was described previously (1). Briefly, the mice were anesthetized with isoflurane (1.4%). The cerebral blood flow (CBF) was measured using a laser Doppler flowmeter (Unique Acquisition software; Unique Medical, Osaka, Japan). A 6.0 monofilament surgical suture was advanced into the internal carotid artery to obstruct the origin of the middle cerebral artery. The filament was left in place for 40 min before withdrawal. For all the mice, the rectal temperature was maintained at 37.0 ± 0.5 °C during surgery and recovery period (until the animals regained consciousness). […] MHP1 (4 mg/ml in water) was diluted to 0.5, 1, or 2 mg/ml in 0.45% saline, and 150 μl of the MHP1 was injected intravenously at 6 or 8 h after the MCAo. MHP1 was subsequently injected subcutaneously for 24 hrs using Alzet mini-osmotic pump (2001D, DURECT Corporation, Cupertino, USA). The vehicle control for MHP1, 0.45% saline, was injected similarly.
The ischemic damage was evaluated at 48 h after MCAo in sections stained with cresyl violet. Coronal sections (12 μm thickness) were made at −1.4, −0.7, 0, 0.7 and 1.4 mm from the bregma, mounted on the stereomicroscope and photographed. The volume of the infarct was calculated by the sum of each area of all sections corrected by cerebral edema and multiplied by the thickness of the slices. In the experiment of tPA-induced hemorrhage, PE10-catheter was placed in the right internal jugular vein at 6 h after ischemia. The nylon suture was then removed and 10% of the MHP-AcN mixture (150 µg/mice) and tPA (10 mg/kg) were injected followed by continuous injection of residual mixture of MHP1-AcN and tPA using a syringe pump (UNIVENTOR 400 ANAESTHESIA UNIT, ZTN, MALTA). In the experiment of FeCl3 -induced thrombosis model in CCA, a piece of filter paper soaked in 7.5% FeCl3 was placed on the right CCA for 1 min and it was rinsed with saline. Blood flow was recorded by using a laser speckle blood flow imager (OMEGAZONE OZ-2, OMEGAWAVE, INC., Tokyo, Japan). tPA (10 mg/kg) or mixture of MHP1-AcN (150 μg/mice) and tPA was started to be administered at 30 min after CCA occlusion.

Where [6] appears, read: LPS-stimulated MG6 cells, medium harvested 24 h after stimulation, ELISA.

In the case of `CC[C@H](C)[C@H](NC(=O)[C@H](CO)NC(=O)[C@@H](NC(=O)[C@H](CCCCN)NC(=O)[C@@H](NC(=O)[C@@H](NC(=O)[C@H](Cc1ccc(O)cc1)NC(=O)[C@@H](NC(=O)[C@H](CCSC)NC(=O)[C@H](CC(C)C)NC(C)=O)C(C)C)C(C)C)C(C)C)[C@@H](C)O)C(=O)N[C@@H](CCCCN)C(=O)N[C@H](C(=O)N1CCC[C@H]1C(=O)N[C@@H](CO)C(=O)N[C@@H](CO)C(=O)N[C@@H](Cc1c[nH]cn1)C(=O)N[C@@H](CC(N)=O)C(=O)N[C@@H](CC(C)C)C(=O)N[C@@H](CCSC)C(=O)N[C@@H](CCCCN)C(=O)NCC(=O)NCC(=O)N[C@@H](CO)C(=O)N[C@H](C(=O)N[C@@H](CCCCN)C(=O)N[C@@H](CC(N)=O)C(=O)N[C@@H](Cc1c[nH]c2ccccc12)C(=O)N[C@@H](CO)C(=O)NCC(=O)N[C@@H](CC(N)=O)C(N)=O)[C@@H](C)O)[C@@H](C)CC` [MHP1-AcN] (Ac-LMVYVVKTSIKIPSSHNLMKGGSTKNWSGN-NH2), in data set [1] (LPS-stimulated MG6 cells, 1 µg/ml peptide), the “anti-inflammatory effects at 1 µg/ml” value is on record as “anti-inflammatory effects were seen”. In data set [1] (LPS-stimulated MG6 cells, 24 h, ELISA), the “dose dependency of anti-inflammatory effects” value is reported as “Dose-dependent anti-inflammatory effects were observed”. The “inhibition of IL-6 expression compared with MHP1” value in data set [1] (setting [6]) is given as “more effective than MHP1”. Further, the “inhibition of TNF-α expression compared with MHP1” value in data set [1] (setting [6]) was “more effective than MHP1”. In addition, the “expression of TNF-α with peptide pre-incubated at 4, 37 or 26 °C (retention of anti-inflammatory effect)” value in data set [1] (peptide incubated at 4, 37 or 26 °C for 24 h, then added to LPS-stimulated MG6 cells) is on record as “no significant differences”. Besides, the “cytotoxicity (LDH assay)” value in data set [2] is recorded as “did not increase cytotoxicity”. The “sedimentation after incubation in 0.45% saline” value in data set [3] (1 mg/ml) and in data set [3] (2 mg/ml) was “sedimentation was not observed” throughout. In addition, the dissolution in water result in data set [3] (water) is “easily dissolved in water”. Also, the “effect on RANKL-induced osteoclast differentiation” value in data set [4] (RANKL 50 ng/ml) is “inhibited RANKL-induced osteoclast differentiation”. Also, in data set [4] (without RANKL), the “effect on osteoclast differentiation (peptide alone)” value was “did not affect the osteoclast differentiation”. In addition, the “reduction of infarct volume” value is “effective” in data set [5] (0.5 mg/ml, infarct at 48 h); “the most effective dose” in data set [5] (1 mg/ml, infarct at 48 h); “effective” in data set [5] (2 mg/ml, infarct at 48 h). Besides, the “neurological deficits (neurological severity score)” value in data set [5] (0.5 mg/ml) was “significantly improved”; in data set [5] (1 mg/ml) it was “significantly improved”; in data set [5] (2 mg/ml) it was “tendency of recovery”. Besides, the neurological deficit result in data set [5] (1 mg/ml, start 8 h after ischemia, at 48 h after ischemia) is “significantly improved”. For the same compound, the “infarct volume compared to saline-treated mice” value in data set [5] (1 mg/ml, start 8 h after ischemia, infarct at 48 h) is given as “tendency of reduction”.
